Measured values reported in patent US8980241B2, “Polymerized cyclic nitroxide radical compound and use thereof” (University of Tsukuba, priority 2008, dated 2015).

What was measured:
[1] = Test 4: in-blood retention after vein injection (ESR of blood plasma); conditions: in vivo, mouse, injected in the vein
Protocol: Each of N-TEMPO-RNP and O-TEMPO-RNP prepared as described above was independently injected in the vein of a different mouse, and after a given time period, laparotomy was performed to carry out blood collection from the heart. After blood collection, centrifugal separation was performed at 6,200 rpm (2000×g) for 10 minutes to obtain blood plasma. When the ESR spectrum of the obtained blood plasma was measured, an ESR signal of each RNP was observed from within the blood. In addition, when the disposition thereof was examined, the half-life was approximately 20 minutes for the former (FIG. 9) and approximately one hour for the latter (FIG. 10).

[2] = system: Cerebral ischemia model rat; assay: Test 5 (1): treatment of cerebral ischemia model rat; conditions: in vivo
[3] = system: cerebral ischemia model rats
[4] = Test 3: reduction-resistance against ascorbic acid (ESR); format: physicochemical; conditions: 3.6 mM AsA, PBS buffer pH 7.4
Excerpt: AsA, also referred to as vitamin C, is present in general at high concentrations in blood.

[5] = Test 2: reduction-resistance against glutathione (ESR); format: physicochemical; conditions: 10 mM glutathione, pH7.2, one hour after colocalization with GSH
Protocol: It is known that, in general, while the interior of a cell is a reductive environment with high concentrations (0.5 mM to 10 mM) of glutathione present, on the order of only one over 100 to 1000 of that in the cell is present in blood.

Molecule	half-life [1] [s]	cell death-protection effect in TTC-stained brain [2]	cell death in TTC-stained brain ([2]; iv)	average blood pressure at the time of agent administration ([3]; cerebral ischemia model rats, N=20)	neurological symptom score ([3]; score 0-3, N=20)	half-life (ESR signal) [4] [s]	decrease in the intensity of the ESR signal [5] [%]
CC1(C)CC(O)CC(C)(C)N1[O] [Tempol, 4-hydroxy-2,2,6,6-tetramethylpiperidine-1-oxyl]	< 60	more cell death-protection effect at a given level or greater was obtained than with intravenous administration	more effect than N-TEMPO-RNP was not observed	decreased significantly	no significant differences		
2,2,6,6-tetramethylpiperidino oxy radical [TEMPO]						≤ 20	50
